According to article PMC9151520 (Archives of Toxicology, 2022):
Values joined by “and” are separate entries in the source; they are usually repeats but may differ in a detail not shown here. Identical values can stand only once. Counter-ions that a name gives are not always drawn. Like-named read-outs stand apart in the source and are kept apart here.

Columns and labels:
[1] = system: p53 signaling (p53RE-bla HCT-116 cells); experiment: cells; format: cell-based
[2] = system: p53 signaling (p53RE-bla HCT-116 cells)
[3] = system: p53 signaling (p53RE-bla HCT-116 cells); remark: listed apart in the source
[4] = Homo sapiens, HCT-116, read-out: p53 activation EC50, cherry pick confirmation
[5] = Homo sapiens, HCT-116, read-out: p53 activation EC50, primary screening
[6] = Homo sapiens, HCT-116, read-out: p53 activation efficacy, cherry pick confirmation
[7] = Homo sapiens, HCT-116, read-out: p53 activation efficacy, primary screening
[8] = read-out: EC50, p53 activation, primary screening
[9] = read-out: EC50, viability, cherry pick confirmation

| Structure (SMILES) | EC50 [1, 4] [µM] | EC50 [1, 5] [µM] | Emax [1, 6] [%] | Emax [1, 7] [%] | Viability EC50, cherry pick confirmation (p53RE-bla HCT-116 cells) | Viability EC50, primary screening (p53RE-bla HCT-116 cells) | Viability efficacy, cherry pick confirmation (p53RE-bla HCT-116 cells) | Viability efficacy, primary screening (p53RE-bla HCT-116 cells) | p53 activation EC50, cherry pick confirmation [2] | p53 activation EC50, primary screening [2] | p53 activation efficacy, cherry pick confirmation [2] | p53 activation efficacy, primary screening [2] | p53 activation EC50, cherry pick confirmation [3] | p53 activation EC50, primary screening [3] | p53 activation efficacy, cherry pick confirmation [3] | p53 activation efficacy, primary screening [3] | EC50, p53 activation, cherry pick confirmation [1] | Efficacy, p53 activation, cherry pick confirmation [1] | EC50, viability, cherry pick confirmation (p53RE-bla HCT-116 cells) | EC50, viability, primary screening (p53RE-bla HCT-116 cells) | further results |
| --- | --- | --- | --- | --- | --- | --- | --- | --- | --- | --- | --- | --- | --- | --- | --- | --- | --- | --- | --- | --- | --- |
| O=C(O)c1c(O)c(-c2ccccc2)nc2ccccc12 [Oxycinchophen] | 23.1 | 16.6 | 87.1 | 60.5 | inactive | inactive | inactive | inactive | inactive | inactive | inactive | inactive | inactive | inactive | inactive | inactive |  |  |  |  |  |
| CCOC(=O)NC(=S)Nc1ccccc1NC(=S)NC(=O)OCC [Thiophanate] |  |  |  |  |  |  |  |  |  |  |  |  |  |  |  |  | inactive | inactive | inactive | inactive | EC50 ([1]; Homo sapiens, HCT-116, read-out: EC50, p53 activation, primary screening): 41 µM; Emax ([1]; Homo sapiens, HCT-116, read-out: Efficacy, p53 activation, primary screening): 70.2%; Efficacy, viability, cherry pick confirmation (p53RE-bla HCT-116 cells): inactive; Efficacy, viability, primary screening (p53RE-bla HCT-116 cells): inactive; EC50, p53 activation, cherry pick confirmation [2]: inactive; EC50, p53 activation, primary screening [2]: inactive; Efficacy, p53 activation, cherry pick confirmation [2]: inactive; Efficacy, p53 activation, primary screening [2]: inactive; EC50, p53 activation, cherry pick confirmation [3]: inactive; EC50, p53 activation, primary screening [3]: inactive; Efficacy, p53 activation, cherry pick confirmation [3]: inactive; Efficacy, p53 activation, primary screening [3]: inactive |
| Cc1cc(=O)oc2cc(N(C)C)ccc12 [7-(Dimethylamino)-4-methylcoumarin] |  |  |  |  | inactive | inactive | inactive | inactive | inactive |  | inactive |  | inactive |  | inactive |  |  |  |  |  | p53 activation efficacy, cherry pick confirmation [1]: 79.8427; p53 activation efficacy, primary screening [1]: 78.774; EC50 ([1]; read-out: p53 activation EC50, cherry pick confirmation): 29.5 µM; EC50 ([1]; read-out: p53 activation EC50, primary screening): 35.2 µM |
| CCN(CC)CCCC(C)Nc1c2ccc(Cl)cc2nc2ccc(OC)cc12 (stereo not drawn) [Quinacrine dihydrochloride dihydrate] | 8.34 | 20.7 | 271 | 79.8 | inactive | inactive | inactive | inactive | inactive | inactive | inactive | inactive | inactive | inactive | inactive | inactive |  |  |  |  |  |
| CC(=O)Oc1ccc(C2(c3ccc(OC(C)=O)cc3)Oc3ccccc3NC2=O)cc1 [Bisoxatin acetate] | 0.665 | 3.99 | 31.4 | 63.9 | inactive | inactive | inactive | inactive | inactive | inactive | inactive | inactive | inactive | inactive | inactive | inactive |  |  |  |  |  |
| Oc1c(Cl)cc(Cl)cc1Sc1cc(Cl)cc(Cl)c1O [Sodium bithionolate] |  |  |  |  |  |  |  |  |  |  |  |  |  |  |  |  | inactive | inactive | inactive | inactive | Efficacy, p53 activation, primary screening [1]: 34.4493; EC50 [1, 8]: 17.3 µM; EC50 (p53RE-bla HCT-116 cells; [9]): 46.5 µM and 39.1 µM; EC50 (p53RE-bla HCT-116 cells; read-out: EC50, viability, primary screening): 43.5 µM and 45.5 µM; EC50, p53 activation, cherry pick confirmation [2]: inactive; EC50, p53 activation, primary screening [2]: inactive; Efficacy, p53 activation, cherry pick confirmation [2]: inactive; Efficacy, p53 activation, primary screening [2]: inactive; EC50, p53 activation, cherry pick confirmation [3]: inactive; EC50, p53 activation, primary screening [3]: inactive; Efficacy, p53 activation, cherry pick confirmation [3]: inactive; Efficacy, p53 activation, primary screening [3]: inactive |
| CCN(CC)C(=O)C(Cl)=C(C)OP(=O)(OC)OC [Phosphamidon] |  |  |  |  |  |  |  |  |  |  |  |  |  |  |  |  |  |  |  |  | p53 activation EC50, No MS [1]: inactive; p53 activation Efficacy, No MS [1]: inactive; Viability EC50, HLM (p53RE-bla HCT-116 cells): inactive; Viability EC50, No MS (p53RE-bla HCT-116 cells): inactive; Viability EC50, RLM (p53RE-bla HCT-116 cells): inactive; Viability Efficacy, No MS (p53RE-bla HCT-116 cells): inactive; EC50 [2]: 3.22 µM; EC50 ([2]; read-out: p53 activation EC50, RLM): 2.35 µM and 3.43 µM; p53 activation EC50, HLM [3]: inactive; EC50 ([3]; read-out: p53 activation EC50, HLM): 5.82 µM |
| COC(=O)Nc1nc2ccccc2[nH]1 [Carbendazim] | 11.9 | 10.3 | 62.2 | 67 | inactive | inactive | inactive | inactive | inactive | inactive | inactive | inactive | inactive | inactive | inactive | inactive |  |  |  |  |  |
| COc1cccc2c1cc([N+](=O)[O-])c1c(C(=O)[O-])cc3c(c12)OCO3.[Na+] [Sodium aristolochate-I] |  |  |  |  |  |  |  |  |  |  |  |  |  |  |  |  | inactive | inactive | inactive | inactive | Efficacy, p53 activation, primary screening [1]: 50.4333; EC50 [1, 8]: 3.65 µM; Efficacy, viability, primary screening (p53RE-bla HCT-116 cells): inactive; EC50 (p53RE-bla HCT-116 cells; [9]): 9.67 µM; EC50, p53 activation, cherry pick confirmation [2]: inactive; EC50, p53 activation, primary screening [2]: inactive; Efficacy, p53 activation, cherry pick confirmation [2]: inactive; Efficacy, p53 activation, primary screening [2]: inactive; EC50, p53 activation, cherry pick confirmation [3]: inactive; EC50, p53 activation, primary screening [3]: inactive; Efficacy, p53 activation, cherry pick confirmation [3]: inactive; Efficacy, p53 activation, primary screening [3]: inactive |
| C=C(CC)C(=O)c1ccc(OCC(=O)O)c(Cl)c1Cl [Ethacrynic acid] |  | 8.57 |  | 27.2 | inactive | inactive | inactive | inactive | inactive | inactive | inactive | inactive | inactive | inactive | inactive | inactive |  |  |  |  | p53 activation EC50, cherry pick confirmation [1]: inactive; p53 activation efficacy, cherry pick confirmation [1]: inactive |
